From PMC6522927, “Fibrate-based N-acylsulphonamides targeting carbonic anhydrases: synthesis, biochemical evaluation, and docking studies” (Journal of Enzyme Inhibition and Medicinal Chemistry, 2019) come the findings set out here.

For one data set, the target named is T1, hCA IX (Homo sapiens, UniProt Q16790).
T1 construct: made in house
The experiment in a line: stopped-flow CO2 hydrase assay, hCA IX. Format: biochemical. Particulars: for inhibition of hCA IX (in words): result stated in words. The procedure: (§1) An Applied Photophysics stopped-flow instrument has been used for assaying the CA catalysed CO2 hydration activity. Phenol red (0.2 mM) has been used as indicator, working at the absorbance maximum of 557 nm, with 20 mM Hepes (pH 7.5, for α-CAs) as buffer, and 20 mM NaClO4 (for maintaining constant the ionic strength), following the initial rates of the CA-catalysed CO2 hydration reaction for a period of 10–100 s. The CO2 concentrations ranged from 1.7 to 17 mM for the determination of the kinetic parameters and inhibition constants. In particular, CO2 was bubbled in distilled deionised water for 30 min till saturation. A CO2 kit (Sigma, Milan, Italy) was used to measure the concentration in serially diluted solutions from the saturated one at the same temperature. For each inhibitor at least six traces of the initial 5–10% of the reaction have been used for determining the initial velocity. The uncatalysed rates were determined in the same manner and subtracted from the total observed rates. Stock solutions of inhibitor ([…]) were prepared in distilled–deionised water and dilutions up to 0.1 nM were done thereafter with the assay buffer. Inhibitor and enzyme solutions were preincubated together for 15 min at room temperature prior to assay, in order to allow for the formation of the E–I complex or for the eventual active site mediated hydrolysis of the inhibitor. The inhibition constants were obtained by non-linear least-squares methods using PRISM 3 and the Cheng–Prusoff equation and represent the average from at least three different determinations. All recombinant CA isoforms were obtained in-house as previously reported[24]^,[25].

The target of the next data set is T2, hCA II (Homo sapiens, UniProt P00918).
T2 construct: made in house
The experiment in a line: stopped-flow CO2 hydrase assay, hCA II. The format is biochemical. Conditions: for inhibition of hCA II (in words): result stated in words; for Ki: recombinant hCA II, CO2 hydration, 15 min preincubation. Here is the method:
as §1

In a further data set the target is T3, hCA XII (Homo sapiens, UniProt O43570).
T3 construct: made in house
T3 sequence (O43570 25-354): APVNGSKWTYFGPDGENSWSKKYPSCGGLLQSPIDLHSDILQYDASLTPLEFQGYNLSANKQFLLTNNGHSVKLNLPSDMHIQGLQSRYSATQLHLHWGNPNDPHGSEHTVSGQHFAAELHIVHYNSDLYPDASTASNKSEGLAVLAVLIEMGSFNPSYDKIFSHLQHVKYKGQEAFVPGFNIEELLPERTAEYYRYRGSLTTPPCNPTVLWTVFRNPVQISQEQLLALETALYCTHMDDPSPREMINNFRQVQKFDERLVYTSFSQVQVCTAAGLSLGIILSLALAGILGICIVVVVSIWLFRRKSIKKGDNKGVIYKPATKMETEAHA
The experiment in a line: stopped-flow CO2 hydrase assay, hCA XII. Format: biochemical. Particulars: result stated in words. Here is the method:
as §1

In another data set the target is T4, hCA I (Homo sapiens, UniProt P00915).
T4 construct: made in house
T4 sequence (P00915 whole entry): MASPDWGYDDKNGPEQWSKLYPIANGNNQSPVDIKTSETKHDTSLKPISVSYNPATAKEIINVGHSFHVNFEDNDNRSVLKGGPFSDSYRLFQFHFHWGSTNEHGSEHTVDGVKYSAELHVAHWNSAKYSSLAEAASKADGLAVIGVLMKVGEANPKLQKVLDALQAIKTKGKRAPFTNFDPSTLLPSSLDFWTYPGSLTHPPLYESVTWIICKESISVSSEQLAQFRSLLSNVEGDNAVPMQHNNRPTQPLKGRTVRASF
Briefly: stopped-flow CO2 hydrase assay, hCA I. The format is biochemical. Particulars: for inhibition of hCA I (in words): result stated in words; for Ki: recombinant hCA I, CO2 hydration, 15 min preincubation. Here is the method:
as §1

In general, Ki refers to a dissociation constant, usually derived from enzyme kinetics or from competition with a known ligand. What is called melting point is the temperature of the solid-liquid transition.

“Also recorded” adds a separate entry of the source.

Take `CC(C)(Oc1ccc(Cl)cc1)C(=O)NS(=O)(=O)c1ccccc1` [Compound 15]: the “inhibition of hCA IX (in words)” value on hCA IX was “completely inactive”. Also, the “inhibition of hCA II (in words)” value against hCA II was “completely inactive”. Further, the “inhibition of hCA XII (in words)” value against hCA XII was “completely inactive”. At hCA I, the “inhibition of hCA I (in words)” value was “completely inactive”.

With `Cc1ccc(C)c(OCCCC(C)(C)C(=O)NS(=O)(=O)c2ccccc2)c1` [Compound 16], the “inhibition of hCA IX (in words)” value at hCA IX was “completely inactive”. The “inhibition of hCA II (in words)” value against hCA II is “completely inactive”. Also, on hCA XII, the “inhibition of hCA XII (in words)” value is “completely inactive”. Besides, on hCA I, the “inhibition of hCA I (in words)” value is “completely inactive”.

`CC(C)(Oc1ccc(CCNC(=O)c2ccc(Cl)cc2)cc1)C(=O)NS(=O)(=O)c1ccccc1` [Compound 17]: on hCA IX, the “inhibition of hCA IX (in words)” value is on record as “moderate inhibition”. For the same molecule, on hCA II, the “inhibition of hCA II (in words)” value is given as “moderate inhibition”. The “inhibition of hCA I (in words)” value against hCA I was “moderate inhibition”.

As for `CC(C)(Oc1ccc(C(=O)c2ccc(Cl)cc2)cc1)C(=O)NS(=O)(=O)c1ccccc1` [Compound 18], on hCA IX (recombinant hCA IX, CO2 hydration, 15 min preincubation), the Ki stood at 440 nM. At hCA IX, the “inhibition of hCA IX (in words)” value is “moderate inhibition; also recorded: submicromolar”. Besides, at hCA II, the Ki was found to be 1300 nM and the “inhibition of hCA II (in words)” value was “moderate inhibition”. In addition, at hCA I, the Ki was less than 10000 nM and the “inhibition of hCA I (in words)” value is “moderate inhibition; also recorded: submicromolar”.

Molecule `COc1ccc(S(=O)(=O)NC(=O)C(C)(C)Oc2ccc(C(=O)c3ccc(Cl)cc3)cc2)cc1` [Compound 20, 2-[4-(4-Chlorobenzoyl)phenoxy]-N-[(4-methoxyphenyl)sulfonyl]-2-methylpropanamide] showed a melting point of 188 to 189 °C.

Regarding `CC(C)(Oc1ccc(C(=O)c2ccc(Cl)cc2)cc1)C(=O)NS(=O)(=O)c1ccc(Cl)cc1` [Compound 21, 2-[4–(4-Chlorobenzoyl)phenoxy]-N-[(4-chlorophenyl)sulfonyl]-2-methylpropanamide], the melting point is 204 to 205 °C (dec.). Further, the Ki on hCA I is less than 10000 nM.

For `CC(C)(Oc1ccc(C(=O)c2ccc(Cl)cc2)cc1)C(=O)NS(=O)(=O)c1ccc([N+](=O)[O-])cc1` [Compound 22, 2-[4–(4-Chlorobenzoyl)phenoxy]-2-methyl-N-[(4-nitrophenyl)sulfonyl]propanamide], the melting point lay within 196 to 198 °C. For the same molecule, the Ki at hCA II was 16 nM.

Molecule `CC(=O)Nc1ccc(S(=O)(=O)NC(=O)C(C)(C)Oc2ccc(C(=O)c3ccc(Cl)cc3)cc2)cc1` [Compound 23, N-{[4-(acetylamino)phenyl]sulfonyl}-2-[4–(4-chlorobenzoyl)phenoxy]-2-methylpropanamide] yielded a melting point of 226 to 228 °C.

Regarding `CC(C)(Oc1ccc(C(=O)c2ccc(Cl)cc2)cc1)C(=O)NS(=O)(=O)c1ccc(NC(=O)c2ccccc2)cc1` [Compound 24, N-{4-[({2-[4–(4-chlorobenzoyl)phenoxy]-2-methylpropanoyl}amino)sulfonyl]phenyl} benzamide], the melting point was in the range of 232 to 234 °C. On hCA II, the Ki turned out to be 77 nM and the “inhibition of hCA II (in words)” value is reported as “marked effect”. Besides, on hCA I, the Ki is less than 10000 nM and the “inhibition of hCA I (in words)” value was “marked effect”.

`O=C(COc1ccc(C(=O)c2ccccc2)cc1)NS(=O)(=O)c1ccccc1` [Compound 26, 2-(4-Benzoylphenoxy)-N-(phenylsulphonyl)acetamide] yielded a melting point of 61 to 62 °C. Further, on hCA IX, the “inhibition of hCA IX (in words)” value is “did not induce a sensible inhibition”. Besides, at hCA II, the “inhibition of hCA II (in words)” value is listed as “did not induce a sensible inhibition”. Besides, the “inhibition of hCA XII (in words)” value against hCA XII was “did not induce a sensible inhibition”. In addition, the “inhibition of hCA I (in words)” value at hCA I was “did not induce a sensible inhibition”.

Take `CCCC(Oc1ccc(C(=O)c2ccccc2)cc1)C(=O)NS(=O)(=O)c1ccccc1` (stereo not shown) [Compound 27, 2-(4-Benzoylphenoxy)-N-(phenylsulphonyl)pentanamide]: the “inhibition of hCA IX (in words)” value on hCA IX was “did not induce a sensible inhibition”. The “inhibition of hCA II (in words)” value against hCA II is “did not induce a sensible inhibition”. Moreover, the “inhibition of hCA XII (in words)” value on hCA XII is “did not induce a sensible inhibition”. Also, the “inhibition of hCA I (in words)” value on hCA I is recorded as “did not induce a sensible inhibition”.
